These compounds were tested against PD-1/PD-L1 interaction (PD-1-Ig / PD-L1-His) (Homo sapiens (Human), UniProt Q9NZQ7) (assay: PD-1/PD-L1 Homogenous Time-Resolved Fluorescence (HTRF) binding assay). Conditions: PD-1/PD-L1 HTRF binding assay; numeric value; read-out: Range or IC50.
Description: The ability of the compounds of formula (I) to bind to PD-L1 was investigated using a PD-1/PD-L1 Homogenous Time-Resolved Fluorescence (HTRF) binding assay.
Homogenous Time-Resolved Fluorescence (HTRF) Binding Assay.
The interaction of PD-1 and PD-L1 can be assessed using soluble, purified preparations of the extracellular domains of the two proteins. The PD-1 and PD-L1 protein extracellular domains were expressed as fusion proteins with detection tags, for PD-1, the tag was the Fc portion of Immunoglobulin (PD-1-Ig) and for PD-L1 it was the 6 histidine motif (PD-L1-His). All binding studies were performed in an HTRF assay buffer consisting of dPBS supplemented with 0.1% […] bovine serum albumin and 0.05% (v/v) Tween-20. For the h/PD-L1-His binding assay, inhibitors were pre-incubated with PD-L1-His (10 nM final) for 15 m in 4 μl of assay buffer, followed by addition of PD-1-Ig (20 nM final) in 1 μl of assay buffer and further incubation for 15 m. HTRF detection was achieved using europium crypate-labeled anti-Ig (1 nM final) and allophycocyanin (APC) labeled anti-His (20 nM final). Antibodies were diluted in HTRF detection buffer and 5 μl was dispensed on top of the binding reaction. […] Additional binding assays were established between the human proteins PD-1-Ig/PD-L2-His (20 & 5 nM, respectively) and CD80-His/PD-L1-Ig (100 & 10 nM, respectively). […]

PD-1/PD-L1 interaction (PD-1-Ig / PD-L1-His), sequence (Q9NZQ7 other isoform, or with tags, fused parts or gaps): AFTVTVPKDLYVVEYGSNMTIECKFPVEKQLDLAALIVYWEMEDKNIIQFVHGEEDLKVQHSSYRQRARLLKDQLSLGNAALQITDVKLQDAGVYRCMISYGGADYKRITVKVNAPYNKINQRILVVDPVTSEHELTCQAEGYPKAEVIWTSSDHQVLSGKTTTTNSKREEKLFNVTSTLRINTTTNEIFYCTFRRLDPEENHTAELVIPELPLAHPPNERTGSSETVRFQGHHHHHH

Row | IC50 [nM] | Structure (SMILES)
1 | 239 | CC(=O)NCCNCc1ccc(OCc2cccc(-c3ccccc3)c2C)cc1OCc1ccc(C(=O)O)cc1 [Example 1043, 4-((2-(((2-acetamidoethyl)amino)methyl)-5-((2-methyl-[1,1′-biphenyl]-3-yl)methoxy)phenoxy)methyl)benzoic acid]
2 | 986 | CC(=O)NCCNCc1ccc(OCc2cccc(-c3ccccc3)c2C)cc1OCc1ccccc1[N+](=O)[O-] [Example 1057, N-(2-((4-((2-methyl-[1,1′-biphenyl]-3-yl)methoxy)-2-((2-nitrobenzyl)oxy)benzyl)amino)ethyl)acetamide]

Same assay, conditions: PD-1/PD-L1 HTRF binding assay; value given as range class; read-out: Range or IC50

Row | Structure (SMILES) | IC50 [nM]
3 | CC(=O)NCCNCc1ccc(OCc2cccc(-c3ccccc3)c2C)cc1OCc1ccc(C#N)cc1 [Example 1029, N-(2-((2-((4-cyanobenzyl)oxy)-4-((2-methyl-[1,1′-biphenyl]-3-yl)methoxy)benzyl)amino)ethyl)acetamide] | 100 to 20000
4 | CC(=O)NCCNCc1ccc(OCc2cccc(-c3ccccc3)c2C)cc1OCCO [Example 1030, N-(2-((2-(2-hydroxyethoxy)-4-((2-methyl-[1,1′-biphenyl]-3-yl)methoxy)benzyl)amino)ethyl)acetamide] | 100 to 20000
5 | CC(=O)NCCNCc1ccc(OCc2cccc(-c3ccccc3)c2C)cc1OCC(N)=O [Example 1031, 2-(2-(((2-acetamidoethyl)amino)methyl)-5-((2-methyl-[1,1′-biphenyl]-3-yl)methoxy)phenoxy)acetamide] | 100 to 20000
6 | COC(=O)CCCCOc1cc(OCc2cccc(-c3ccccc3)c2C)ccc1CNCCNC(C)=O [Example 1032, methyl 5-(2-(((2-acetamidoethyl)amino)methyl)-5-((2-methyl-[1,1′-biphenyl]-3-yl)methoxy)phenoxy)pentanoate] | 100 to 20000
7 | CC(=O)NCCNCc1ccc(OCc2cccc(-c3ccccc3)c2C)cc1OCCc1ccccc1 [Example 1033, N-(2-((4-((2-methyl-[1,1′-biphenyl]-3-yl)methoxy)-2-phenethoxybenzyl)amino)ethyl)acetamide] | 100 to 20000
8 | COC(=O)c1cccc(COc2cc(OCc3cccc(-c4ccccc4)c3C)ccc2CNCCNC(C)=O)c1 [Example 1034, methyl 3-((2-(((2-acetamidoethyl)amino)methyl)-5-((2-methyl-[1,1′-biphenyl]-3-yl)methoxy)phenoxy)methyl)benzoate] | 100 to 20000
9 | CC(=O)NCCNCc1ccc(OCc2cccc(-c3ccccc3)c2C)cc1OCCCO [Example 1035, N-(2-((2-(3-hydroxypropoxy)-4-((2-methyl-[1,1′-biphenyl]-3-yl)methoxy)benzyl)amino)ethyl)acetamide] | 100 to 20000
10 | CC(=O)NCCNCc1ccc(OCc2cccc(-c3ccccc3)c2C)cc1OCc1cccc(CO)c1 [Example 1037, N-(2-((2-((3-(hydroxymethyl)benzyl)oxy)-4-((2-methyl-[1,1′-biphenyl]-3-yl)methoxy)benzyl)amino)ethyl)acetamide] | 100 to 20000
11 | CC(=O)NCCNCc1ccc(OCc2cccc(-c3ccccc3)c2C)cc1OCc1ccc(C(N)=O)cc1 [Example 1039] | 100 to 20000
12 | CC(=O)NCCNCc1ccc(OCc2cccc(-c3ccccc3)c2C)cc1OCc1ccc(C(C)=O)cc1 [Example 1040, N-(2-((2-((4-acetylbenzyl)oxy)-4-((2-methyl-[1,1′-biphenyl]-3-yl)methoxy)benzyl)amino)ethyl)acetamide] | 100 to 20000
13 | CC(=O)NCCNCc1ccc(OCc2cccc(-c3ccccc3)c2C)cc1OCc1ccccc1S(C)(=O)=O [Example 1041, N-(2-((4-((2-methyl-[1,1′-biphenyl]-3-yl)methoxy)-2-((2-(methylsulfonyl)benzyl)oxy)benzyl)amino)ethyl)acetamide] | 100 to 20000
14 | CCOc1cc(OCc2cccc(-c3ccccc3)c2C)ccc1CNCCNC(C)=O [Example 1044, N-(2-((2-ethoxy-4-((2-methyl-[1,1′-biphenyl]-3-yl)methoxy)benzyl)amino)ethyl)acetamide] | 100 to 20000
15 | CC(=O)NCCNCc1ccc(OCc2cccc(-c3ccccc3)c2C)cc1OCc1ccccc1C [Example 1045, N-(2-((4-((2-methyl-[1,1′-biphenyl]-3-yl)methoxy)-2-((2-methylbenzyl)oxy)benzyl)amino)ethyl)acetamide] | 100 to 20000
16 | CC(=O)NCCNCc1ccc(OCc2cccc(-c3ccccc3)c2C)cc1OCc1c(F)cccc1F [Example 1049, N-(2-((2-((2,6-difluorobenzyl)oxy)-4-((2-methyl-[1,1′-biphenyl]-3-yl)methoxy)benzyl)amino)ethyl)acetamide] | 100 to 20000
17 | CC(=O)NCCNCc1ccc(OCc2cccc(-c3ccccc3)c2C)cc1OCc1cccc(F)c1 [Example 1050, N-(2-((2-((3-fluorobenzyl)oxy)-4-((2-methyl-[1,1′-biphenyl]-3-yl)methoxy)benzyl)amino)ethyl)acetamide] | 100 to 20000
18 | CC(=O)NCCNCc1ccc(OCc2cccc(-c3ccccc3)c2C)cc1OCc1ccc(C(F)(F)F)cc1 [Example 1052, N-(2-((4-((2-methyl-[1,1′-biphenyl]-3-yl)methoxy)-2-((4-(trifluoromethyl)benzyl)oxy)benzyl)amino)ethyl)acetamide] | 100 to 20000
19 | CC(=O)NCCNCc1ccc(OCc2cccc(-c3ccccc3)c2C)cc1OCc1ccc2ccccc2c1 [Example 1056, N-(2-((4-((2-methyl-[1,1′-biphenyl]-3-yl)methoxy)-2-(naphthalen-2-ylmethoxy)benzyl)amino)ethyl)acetamide] | 100 to 20000
20 | CC(=O)NCCNCc1ccc(OCc2cccc(-c3ccccc3)c2C)cc1OCc1ccc(F)c(F)c1 [Example 1059, N-(2-((2-((3,4-difluorobenzyl)oxy)-4-((2-methyl-[1,1′-biphenyl]-3-yl)methoxy)benzyl)amino)ethyl)acetamide] | 100 to 20000
21 | CC(=O)NCCNCc1ccc(OCc2cccc(-c3ccccc3)c2C)cc1OCc1cc(F)ccc1F [Example 1060, N-(2-((2-((2,5-difluorobenzyl)oxy)-4-((2-methyl-[1,1′-biphenyl]-3-yl)methoxy)benzyl)amino)ethyl)acetamide] | 100 to 20000

Continued, values first:

Row | IC50 [nM] | Structure (SMILES)
22 | 100 to 20000 | COC(=O)CCCOc1cc(OCc2cccc(-c3ccccc3)c2C)ccc1CNCCNC(C)=O [Example 1036, methyl 4-(2-(((2-acetamidoethyl)amino)methyl)-5-((2-methyl-[1,1′-biphenyl]-3-yl)methoxy)phenoxy)butanoate]
23 | 100 to 20000 | CC(=O)NCCNCc1ccc(OCc2cccc(-c3ccccc3)c2C)cc1OCc1ccccc1CO [Example 1038, N-(2-((2-((2-(hydroxymethyl)benzyl)oxy)-4-((2-methyl-[1,1′-biphenyl]-3-yl)methoxy)benzyl)amino)ethyl)acetamide]
24 | 100 to 20000 | COCCCOc1cc(OCc2cccc(-c3ccccc3)c2C)ccc1CNCCNC(C)=O [Example 1042, N-(2-((2-(3-methoxypropoxy)-4-((2-methyl-[1,1′-biphenyl]-3-yl)methoxy)benzyl)amino)ethyl)acetamide]
25 | 100 to 20000 | CC(=O)NCCNCc1ccc(OCc2cccc(-c3ccccc3)c2C)cc1OCc1ccc(C(C)(C)C)cc1 [Example 1046, N-(2-((2-((4-(tert-butyl)benzyl)oxy)-4-((2-methyl-[1,1′-biphenyl]-3-yl)methoxy)benzyl)amino)ethyl)acetamide]
26 | 100 to 20000 | CC(=O)NCCNCc1ccc(OCc2cccc(-c3ccccc3)c2C)cc1OCc1ccc(C)cc1 [Example 1047, N-(2-((4-((2-methyl-[1,1′-biphenyl]-3-yl)methoxy)-2-((4-methylbenzyl)oxy)benzyl)amino)ethyl)acetamide]
27 | 100 to 20000 | CC(=O)NCCNCc1ccc(OCc2cccc(-c3ccccc3)c2C)cc1OCc1ccccc1F [Example 1048, N-(2-((2-((2-fluorobenzyl)oxy)-4-((2-methyl-[1,1′-biphenyl]-3-yl)methoxy)benzyl)amino)ethyl)acetamide]
28 | 100 to 20000 | CC(=O)NCCNCc1ccc(OCc2cccc(-c3ccccc3)c2C)cc1OCc1cccc(C(F)(F)F)c1 [Example 1051, N-(2-((4-((2-methyl-[1,1′-biphenyl]-3-yl)methoxy)-2-((3-(trifluoromethyl)benzyl)oxy)benzyl)amino)ethyl)acetamide]
29 | 100 to 20000 | CC(=O)NCCNCc1ccc(OCc2cccc(-c3ccccc3)c2C)cc1OCc1ccccc1Cl [Example 1053, N-(2-((2-((2-chlorobenzyl)oxy)-4-((2-methyl-[1,1′-biphenyl]-3-yl)methoxy)benzyl)amino)ethyl)acetamide]
30 | 100 to 20000 | CC(=O)NCCNCc1ccc(OCc2cccc(-c3ccccc3)c2C)cc1OCc1cccc(Cl)c1 [Example 1054, N-(2-((2-((3-chlorobenzyl)oxy)-4-((2-methyl-[1,1′-biphenyl]-3-yl)methoxy)benzyl)amino)ethyl)acetamide]
31 | 100 to 20000 | CC(=O)NCCNCc1ccc(OCc2cccc(-c3ccccc3)c2C)cc1OCc1ccccc1C#N [Example 1055, N-(2-((2-((2-cyanobenzyl)oxy)-4-((2-methyl-[1,1′-biphenyl]-3-yl)methoxy)benzyl)amino)ethyl)acetamide]
32 | 100 to 20000 | CC(=O)NCCNCc1ccc(OCc2cccc(-c3ccccc3)c2C)cc1OCc1ccc([N+](=O)[O-])cc1 [Example 1058, N-(2-((4-((2-methyl-[1,1′-biphenyl]-3-yl)methoxy)-2-((4-nitrobenzyl)oxy)benzyl)amino)ethyl)acetamide]

From US9850225B2, “Compounds useful as immunomodulators” (BRISTOL-MYERS SQUIBB COMPANY, priority 2014, dated 2017)
